Series [1] can be described thus: In vitro stability in pooled mouse blood plasma. In kind it is in vitro ADME. The settings on record: 1 µM, 37 °C. On the procedure:
The stability of C20 was assessed during incubation with pooled mouse plasma samples for 4 h at 37 °C. To confirm the activity of blood plasma enzymes in the control substance, propantheline (Figure 4A) was used.
The compound C20, at a final concentration of 1 μM, was incubated in mouse plasma at 37 °C with moderate shaking at 300 rpm in a shaker-incubator. After 0, 15, 30, 60 and 240 min, the samples were mixed, aliquots were obtained, and the samples were analyzed by HPLC-MS/MS. Propantheline was used as a control compound. Incubation of compounds with plasma samples was carried out in duplicate. Overall, 100% was obtained as the amount of a substance determined using a mass spectrometer in blood plasma in a 0 min incubation time period.
A total of 3 µL of 100-fold C20 or propantheline substance (0.1 mM) was added to 297 µL of blood plasma preheated to 37 °C to a final concentration of 1 µM.
Aliquots of 30 μL for the time point T = 0 were transferred into microtubes with a capacity of 1.1 mL pre-filled with 180 μL of chilled MeCN with an internal standard of Tolbutamide (IS) at a concentration of 50 ng/mL. Mixed and kept at +4 °C for 15 min. […]
The values of the areas of chromatographic peaks of substances in the studied samples normalized to the area of IS were used for calculations. The 100% of the tested substance from the initial amount was determined at T = 0 min of incubation. […]

In a further series the test system is 5xFAD mice. Put plainly: Contextual and cued fear conditioning test. Format: in vivo, mouse. The settings on record: 10 mg/kg i.p. daily for 14 days. As for the experimental part: To analyze the effect of C20 on the cognitive status of diseased mice, a contextual and cued fear conditioning test was performed in the 5xFAD mice. Two WT cohorts and two 5xFAD cohorts of eight mice each were intraperitoneally injected (every day for 14 days) with either C20 (10 mg/kg) or an equal amount of vehicle.
Six-month-old 5xFAD and WT mice were intraperitoneally injected with C20 (10 mg/kg b.w. dissolved in ethanol (13.5%) and diluted in 0.9% saline (86.5%)) or an equal volume of ethanol diluted in 0.9% saline (vehicle) once daily for 14 days. To analyze the effect of C20 on cognitive behavior, mice were subjected to hippocampus-dependent contextual fear conditioning and hippocampus independent tone fear conditioning (n = 8 mice in each group).
According to a 3-day delay fear conditioning protocol, the conditioned stimulus is presented and overlapped by the presentation of the unconditioned stimulus. The experiments were performed using a standard conditioning chamber (25 cm × 20 cm × 30 cm) with a stainless steel floor connected to an electric shock generator. The chamber was housed in a soundproof isolation cubicle. Measurements were accomplished through two cameras (Web camera FI#2.0 8mm и Webcam Logitech C200, Apples, Switzerland), connected to a computer with video freeze software (AUTO_URAI_4 developer Dr. V.V. Sizov, Institute of Experimental Medicine, Saint Petersburg, Russia, I.P. Pavlov Department of Physiology, sizoff@list.ru).
To exclude possible freezing due to the novel environment, we allowed the mice to habituate to the chamber. On day 1 (habituation), we brought mice into the habituation room and placed them into a training chamber individually for 5 min without any cue.
On day 2 (training), we placed each mouse in the conditioning chamber for 2 min without any shock or tone. Then, mice received two repetitions of a tone (500 Hz, 55 dB) that simultaneously ended with a 2 s foot shock (0.3 mA, US) with 60 s inter-trial intervals. Mice were allowed to recover after the foot-shock for an additional 60 s before being removed to their home cage.
On day 3 (testing), mice were placed back in the familiar fear conditioning chamber, but in the absence of tones and foot shocks. The freezing behavior was measured for 180 s to test contextual memory retrieval. For the tone fear retrieval trial one hour after the contextual test, mice were placed in an altered conditioning chamber with black and white striped walls, a covered floor, and a vanilla extract scent. After 180 s of baseline in an altered conditioning recording, a tone similar to the one used during the fear conditioning training was presented for 180 s. The freezing behavior before and during the tone was measured.

As for `COc1cc2c(cc1OC)C(c1cc3ccccc3oc1=O)=NC(C)(C)C2` [C20, 3-(3-,4-Dihydro-6,7-dimethoxy-3,3-dimethyl-1-isoquinolinyl)-2H-1-benzopyran-2-one], in series [1] (after 4 h incubation), the “initial amount remaining in mouse blood plasma” value was “about 62%”. In series [1] (during the first hour of incubation), the “concentration remaining in mouse blood plasma” value is listed as “above 85%”. In addition, the “freezing time to context” value with 5xFAD mice (6-month-old 5xFAD mice, 5xFAD + vehicle 33.88 ± 15.09%) is recorded as 67.00 ± 17.78%; in the series on 5xFAD mice (WT mice, WT + vehicle 58.25 ± 19.06%), 59.63 ± 17.53%. Also, the “freezing time to tone” value came out at 63.50 ± 13.38% with 5xFAD mice (6-month-old 5xFAD mice, 5xFAD + vehicle 37.75 ± 8.25%) and 67.75 ± 7.56% in the series on 5xFAD mice (WT mice, WT + vehicle 69.25 ± 18.19%).

Source of the values: publication PMC9653995, “New Positive TRPC6 Modulator Penetrates Blood–Brain Barrier, Eliminates Synaptic Deficiency and Restores Memory Deficit in 5xFAD Mice” (International Journal of Molecular Sciences, 2022).
